Literature values in patent publication US8415392B2, “Combined use of L-carnitine, acetyle L-carnitine and propionyl L-carnitine for the treatment of oligoasthenoteratospermia” (Sigma-Tau Industrie Farmaceutiche Riunite, S.p.A., priority 2002, dated 2013).

How the values were obtained:
[1] = tested on: patients with idiopathic asthenospermia; details: L-carnitine administration
[2] = tested on: patients with idiopathic oligoastheno-spermia; details: acetyl L-carnitine
[3] = Fertilität 4.1-4, 1988, L-carnitine therapy

| Structure (SMILES) | sperm motility (infertile patients; Andrologia 26:155-159, 1994, quantitative and qualitative) | carnitine levels in the spermatozoa (infertile patients; [3]) | sperm motility and sperm count (infertile patients; [3]) | sperm quality (infertile patients; Loumbakis et al. 1996, preliminary data) | patients in whom sperm motility improved and sperm count increased [1] | sperm density [2] | sperm motility [2] |
| --- | --- | --- | --- | --- | --- | --- | --- |
| C[N+](C)(C)C[C@H](O)CC(=O)[O-] [L-carnitine] | significant improvement | increase | increase | may have a positive effect | 37 out of 47 |  |  |
| CC(=O)O[C@H](CC(=O)[O-])C[N+](C)(C)C [acetyl L-carnitine] |  |  |  |  |  | no effect | progressive increase |
